Drawing on patent publication US5455255A, “2-(2,3,5,6-tetrafluoro-4-pyridyl)-1,2-benzisothiazol-3(2H)-one 1,1-dioxides and compositions and method of use thereof” (Sterling Winthrop Inc., priority 1994, dated 1995), this text covers Ki for 13 compounds.

pKi: −log10 of the molar value.

The target of the assay is T1, human leukocyte elastase (Homo sapiens, UniProt P08246).
T1 sequence (P08246 30-267): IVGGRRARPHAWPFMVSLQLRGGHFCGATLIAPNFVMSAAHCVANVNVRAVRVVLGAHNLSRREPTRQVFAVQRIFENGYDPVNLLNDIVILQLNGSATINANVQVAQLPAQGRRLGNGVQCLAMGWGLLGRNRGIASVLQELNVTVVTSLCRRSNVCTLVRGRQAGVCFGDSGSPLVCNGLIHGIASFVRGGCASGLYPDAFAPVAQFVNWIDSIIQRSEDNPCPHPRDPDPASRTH
Put plainly: Human leukocyte elastase (HLE) inhibition, progress-curve assay with MeOSuc-Ala-Ala-Pro-Val-pNA. Type of assay: biochemical. As to conditions: substrate MeOSuc-Ala-Ala-Pro-Val-pNA, pH 7.8, 25° C., absorbance 410 nm, read-out: Ki (human leukocyte elastase inhibitory activity). How it is done:
The test compound (inhibitor) is dissolved in DMSO in a vial to produce an inhibitor stock solution which has a concentration in the range of 200-1000 μM. The inhibitor stock solution is diluted (1:4, 1:16 and 1:64) into assay vials (vials 1, 2 and 3 respectively) containing 2.4 mL of buffer solution (50 mM N-[2-hydroxyethyl] piperazine-N'-[2-ethanesulfonic acid]/NaOH, 500 mM NaCl, pH 7.8 at 25° C.) and DMSO is added so that the total volume in each vial is 3.2 mL. 70 μL, 50 μL, 35 μL and 25 μL of inhibitor from assay vial 1 is placed into the first four wells of a 96-well microtiter plate and each well is made up to 90 μL total volume with the addition of a 25% DMSO/buffer solution. The inhibitor from assay vials 2 and 3 is processed in a similar manner and placed in wells 5-12 respectively to afford a total of 12 different inhibitor concentrations. Four wells (wells 13-16) containing 90 μL of the 25% DMSO/buffer solution but no inhibitor are also run simultaneously with the inhibited wells as a control. 150 μL of substrate solution (prepared by the addition of 500 μL of the human leukocyte elastase (HLE) substrate MeOSuc-Ala-Ala-Pro-Val-pNA (18.7 mM in DMSO) to 19.5 mL of buffer solution) was then added simultaneously into each of the 16 wells and the solution in each well was thoroughly mixed.
The 96-well microtiter plate was placed into a Microplate Reader #89815A spectrophotometer 110 μL of the enzyme solution (prepared as follows: a mixture of 20 mL of buffer solution and 20 mg of bovine serum albumen is gently vortexed in a scintillation vial and 5 μL HLE stock solution (1 mg/mL dissolved in deionized water) is added simultaneously to each of the 16 wells. Each of the solutions in the wells is throughly mixed and then the time-dependent absorbance data is collected at an absorbance of 410 nm until the assay is complete. It should be noted that although this assay method can be done manually, it is preferred to perform the assay robotically using a Hewlett Packard MicroAssay System Robot.
A plot of the absorbance versus time data thus obtained affords progress curves the final slope of which is equal to the final steady-state velocities (VF). Using the program. ENZFITTER (Elsevier software), the progress curves for the four control assays ([I]=O) are fit by linear regression to yield the enzyme reaction velocity values in the absences of inhibitor (Vo) which are averaged to produce a single fixed value. The inhibition constant Ki (nM) is then obtained from a plot of [formula] which affords a linear plot wherein: [formula] and [S] is the concentration of the substrate and Km is the Michaelis constant.
Table IV summarizes the results obtained from the testing of representative compounds of the invention for human leukocyte elastase inhibitory activity.
`O=C1c2ccccc2S(=O)(=O)N1c1c(F)c(F)nc(F)c1F` [Example 1, 2-(2,3,5,6-tetrafluoro-4-pyridyl)-1,2-benzisothiazol-3(2H)-one 1,1-dioxide]: the pKi – broadly, the Ki on a negative log10 scale, so that one unit is a factor of ten – was 7.70.

As to `COc1ccc2c(c1)S(=O)(=O)N(c1c(F)c(F)nc(F)c1F)C2=O` [Example 10A], the negative logarithm of the Ki (pKi) was 7.13.

Consider `CC(C)c1cccc2c1C(=O)N(c1c(F)c(F)nc(F)c1F)S2(=O)=O` [Example 10], for which the pKi was 7.00.

Take `COc1cc(OC)c2c(c1)S(=O)(=O)N(c1c(F)c(F)nc(F)c1F)C2=O` [Example 4]: the pKi was 8.40.

In the case of `COc1ccc2c(c1OC)C(=O)N(c1c(F)c(F)nc(F)c1F)S2(=O)=O` [Example 5], the pKi was 7.82.

As to `CC(C)Oc1cc(C(C)C)c2c(c1)S(=O)(=O)N(c1c(F)c(F)nc(F)c1F)C2=O` [Example 12, 4-isopropyl-6-isopropoxy-2-(2,3,5,6-tetrafluoro-4-pyridyl)-1.2-benzisothiazol-3(2H)-one 1,1-dioxide], the negative-log Ki (pKi) was 7.30.

On to `CC(C)Oc1cccc2c1C(=O)N(c1c(F)c(F)nc(F)c1F)S2(=O)=O` [Example 9], for which the pKi was 6.85.

As to `CCOc1cccc2c1C(=O)N(c1c(F)c(F)nc(F)c1F)S2(=O)=O` [Example 8], the pKi is 8.85.

`COc1cccc2c1C(=O)N(c1c(F)c(F)nc(F)c1F)S2(=O)=O` [Example 7]: the pKi was 8.19.

As to `COc1cc(C(C)C)c2c(c1)S(=O)(=O)N(c1c(F)c(F)nc(F)c1F)C2=O` [Example 2, 4-isopropyl-6-methoxy-2-(2,3,5,6-tetrafluoro-4-pyridyl)-1,2-benzisothiazol-3(2H)-one 1,1-dioxide], the negative logarithm of the Ki (pKi) was 7.42.

Turning to `CC(C)c1cc(O)cc2c1C(=O)N(c1c(F)c(F)nc(F)c1F)S2(=O)=O` [Example 11, 4-isopropyl-6-hydroxy-2-(2,3,5,6-tetrafluoro-4-pyridyl)-1,2-benzisothiazol-1,2-benzisothiazol-3(2H)-one 1,1-dioxide], the pKi is 5.70.

With `COc1cc2c(c(C(C)C)c1OC)C(=O)N(c1c(F)c(F)nc(F)c1F)S2(=O)=O` [Example 3], the pKi is 7.32.

Regarding `CCCc1c(OC)c(OC)cc2c1C(=O)N(c1c(F)c(F)nc(F)c1F)S2(=O)=O` [Example 6], the pKi is 7.80.
